Experimental data published in US11986471B2, “Compounds and methods of use” (Tango Therapeutics, Inc., priority 2018, dated 2024).

Legend:
HAP1 MTAP-deleted = test: SDMA in-cell western assay, HAP1 MTAP-deleted cell line; format: cell-based; conditions: for IC50: Homo sapiens, HAP1 MTAP-deleted cell line; for MTAP Intact/Deleted Ratio: IC50 ratio HAP1 MTAP-intact / HAP1 MTAP-deleted
Text: (§1) Table 1a also indicates IC50 values in an MTAP-isogenic cell line pair for exemplary compounds in an SDMA in-cell western assay (columns 7-8). HAP1 MTAP-intact is a cell line in which endogenous levels of MTAP are expressed, and HAP1 MTAP-deleted is an MTAP-null cell line.

HAP1 MTAP-intact = test: SDMA in-cell western assay, HAP1 MTAP-intact cell line; format: cell-based; conditions: Homo sapiens
Text: as §1, with “line. […] Compounds with a ratio in the SDMA in-cell western assay of equal to or greater than 3 fold are considered MTAP-selective.” for “line.”

PRMT5 [1] = target: T1, PRMT5 (Homo sapiens, UniProt O14744); test: PRMT5 IC50 assay in the presence of SAM as cofactor; format: biochemical
T1 construct: purchased Viva (custom protein)
T1 sequence (O14744 whole entry): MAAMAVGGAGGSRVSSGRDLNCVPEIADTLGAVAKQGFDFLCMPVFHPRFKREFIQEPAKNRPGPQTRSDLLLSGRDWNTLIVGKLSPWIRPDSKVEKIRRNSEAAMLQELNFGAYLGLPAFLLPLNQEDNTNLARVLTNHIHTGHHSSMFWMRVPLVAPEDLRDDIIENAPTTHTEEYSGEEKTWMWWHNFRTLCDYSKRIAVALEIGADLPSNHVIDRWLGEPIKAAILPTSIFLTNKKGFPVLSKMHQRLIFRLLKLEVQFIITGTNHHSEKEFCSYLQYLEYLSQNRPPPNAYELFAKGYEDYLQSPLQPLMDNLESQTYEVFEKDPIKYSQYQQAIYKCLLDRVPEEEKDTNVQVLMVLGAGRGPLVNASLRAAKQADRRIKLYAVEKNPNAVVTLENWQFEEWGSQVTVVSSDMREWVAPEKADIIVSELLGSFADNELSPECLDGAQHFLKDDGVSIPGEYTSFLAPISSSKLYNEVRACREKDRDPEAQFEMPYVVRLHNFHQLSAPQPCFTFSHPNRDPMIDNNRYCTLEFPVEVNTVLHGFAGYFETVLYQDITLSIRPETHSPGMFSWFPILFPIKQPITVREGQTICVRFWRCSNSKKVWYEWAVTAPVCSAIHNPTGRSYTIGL
T1 sequence (Q9BQA1 whole entry partner): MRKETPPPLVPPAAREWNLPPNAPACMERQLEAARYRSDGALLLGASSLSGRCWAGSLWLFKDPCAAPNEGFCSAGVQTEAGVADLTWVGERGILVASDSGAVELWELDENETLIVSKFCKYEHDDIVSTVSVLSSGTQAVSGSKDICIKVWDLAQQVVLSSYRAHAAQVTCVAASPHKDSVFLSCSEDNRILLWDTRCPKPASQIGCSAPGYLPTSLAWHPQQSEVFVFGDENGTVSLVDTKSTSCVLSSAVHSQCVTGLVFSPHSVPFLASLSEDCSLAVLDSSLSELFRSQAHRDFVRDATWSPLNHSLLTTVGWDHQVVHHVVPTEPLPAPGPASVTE
Method in brief: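 Enzyme: human PRMT5. Conditions: plus SAM, plus MTA, or cofactor-free. Output: IC50 (μM); Ki via IC50/1.5 (SAM) or IC50/13.5 (MTA).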

PRMT5 [2] = target: T1, PRMT5; test: PRMT5 IC50 assay with no cofactor; format: biochemical; conditions: read-out: No Co-factor IC50
Method in brief: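 Results given as IC50 (μM), from which Ki follows by dividing by 1.5 in the SAM condition or by 13.5 in the MTA condition. The ratio of SAM Ki to MTA Ki indicates MTA-cooperative preference.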

PRMT5 [3] = target: T1, PRMT5; test: PRMT5 IC50 assay in the presence of MTA as cofactor; format: biochemical; conditions: for IC50: PRMT5, MTA as cofactor; for SAM/MTA Ratio: ratio between Ki in the presence of SAM and Ki in the presence of MTA
Method in brief: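 For the SAM-containing format, dividing IC50 by 1.5 yields Ki; for the MTA-containing format the divisor is 13.5. A third format without cofactor gives IC50 alone.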

IC50 (HAP1 MTAP-intact)	IC50 (PRMT5 [1])	IC50 (PRMT5 [2])	IC50 (PRMT5 [3])	Compound	IC50 (HAP1 MTAP-deleted)	MTAP Intact/Deleted Ratio (HAP1 MTAP-deleted)	SAM/MTA Ratio (PRMT5 [3])
1000 to 10000 nM	50 to 500 nM	500 to 5000 nM	50 to 500 nM	CC(=O)N1CC[C@H](Nc2cc(C(=O)NC[C@H](O)CN3CCc4cc(OCc5ocnc5C)ccc4C3)ncn2)C[C@H]1C (mixture of isomers) [Compound 626, 6-{[(2RS,4SR)-1-acetyl-2-methylpiperidin-4-yl]amino}-N-[(2S)-2-hydroxy-3-{6-[(4-methyl-1,3-oxazol-5-yl)methoxy]-1,2,3,4-tetrahydroisoquinolin-2-yl}propyl]pyrimidine-4-carboxamide]	< 1000 nM	B* (an IC50 ratio greater than or equal to 3 fold but lower than 10 fold between the IC50 in the HAP1 MTAP-intact cell line and the HAP1 MTAP-deleted cell line)	A (a Ki ratio greater than or equal to 10 fold between the Ki in the presence of SAM and the Ki in the presence of MTA)
1000 to 10000 nM	50 to 500 nM	≥ 5000 nM	50 to 500 nM	CC(=O)N1CCC(Nc2cc(C(=O)NC[C@H](O)CN3CCc4cc(OCc5ocnc5C)ccc4C3)cc(N3CCCCC3)c2)CC1 (single isomer, unassigned) [Compound 631]	< 1000 nM	B* (an IC50 ratio greater than or equal to 3 fold but lower than 10 fold between the IC50 in the HAP1 MTAP-intact cell line and the HAP1 MTAP-deleted cell line)	A (a Ki ratio greater than or equal to 10 fold between the Ki in the presence of SAM and the Ki in the presence of MTA)
1000 to 10000 nM	50 to 500 nM	500 to 5000 nM	50 to 500 nM	Cc1ncoc1COc1ccc2c(c1)CCN(C[C@@H](O)CNC(=O)c1ccnc(NC3CCN(C(=O)C(C)(C)C)CC3)c1)C2 [Compound 640, (S)—N-(2-hydroxy-3-(6-((4-methyloxazol-5-yl)methoxy)-3,4-dihydroisoquinolin-2(1H)-yl)propyl)-2-((1-pivaloylpiperidin-4-yl)amino)isonicotinamide]			A (a Ki ratio greater than or equal to 10 fold between the Ki in the presence of SAM and the Ki in the presence of MTA)
< 1000 nM	50 to 500 nM	500 to 5000 nM	< 50 nM	CC(=O)N1CCC(Nc2cc(C(=O)NC[C@H](O)CN3CCc4cc(OCc5ocnc5C)ccc4C3)cc(C3CCCCC3)n2)CC1 [Compound 641, (S)-2-((1-acetylpiperidin-4-yl)amino)-6-cyclohexyl-N-(2-hydroxy-3-(6-((4-methyloxazol-5-yl)methoxy)-3,4-dihydroisoquinolin-2(1H)-yl)propyl)isonicotinamide]			A (a Ki ratio greater than or equal to 10 fold between the Ki in the presence of SAM and the Ki in the presence of MTA)
≥ 10000 nM	50 to 500 nM	500 to 5000 nM	50 to 500 nM	CC(=O)N1CCC(Nc2cc(C(=O)NC[C@H](O)CN3CCc4c(C)c(OCc5ocnc5C)cc(F)c4C3)ccn2)CC1 [Compound 642, 2-[(1-acetyl-4-piperidyl)amino]-N-[(2S)-3-[8-fluoro-5-methyl-6-[(4-methyloxazol-5-yl)methoxy]-3,4-dihydro-1H-isoquinolin-2-yl]-2-hydroxy-propyl]pyridine-4-carboxamide]			A (a Ki ratio greater than or equal to 10 fold between the Ki in the presence of SAM and the Ki in the presence of MTA)
	50 to 500 nM	500 to 5000 nM	< 50 nM	CC(=O)N1CCC(Nc2cc(C(=O)NC[C@H](O)CN3CCc4cc(OCc5ocnc5C)ccc4C3)cc(C(C)C)n2)CC1 [Compound 646, (S)-2-((1-acetylpiperidin-4-yl)amino)-N-(2-hydroxy-3-(6-((4-methyloxazol-5-yl)methoxy)-3,4-dihydroisoquinolin-2(1H)-yl)propyl)-6-isopropylisonicotinamide]			A (a Ki ratio greater than or equal to 10 fold between the Ki in the presence of SAM and the Ki in the presence of MTA)

The next lines start with the compound.

Compound	IC50 (HAP1 MTAP-intact)	IC50 (PRMT5 [1])	IC50 (PRMT5 [2])	IC50 (PRMT5 [3])	IC50 (HAP1 MTAP-deleted)	MTAP Intact/Deleted Ratio (HAP1 MTAP-deleted)	SAM/MTA Ratio (PRMT5 [3])
Cn1nccc1COc1ccc2c(c1)CCN(C[C@@H](O)CNC(=O)c1ccnc(NC3CCC3)c1)C2 [Compound 14, (S)-2-(cyclobutylamino)-N-(2-hydroxy-3-(6-((1-methyl-1H-pyrazol-5-yl)methoxy)-3,4-dihydroisoquinolin-2(1H)-yl)propyl)isonicotinamide]	1000 to 10000 nM				≥ 10000 nM		
O=C(NC[C@H](O)CN1CCc2cc(OCc3cnco3)ccc2C1)c1ccnc(NC2CCC2)c1 [Compound 74, 2-(cyclobutylamino)-N-[(2S)-2-hydroxy-3-[6-(oxazol-5-ylmethoxy)-3,4-dihydro-1H-isoquinolin-2-yl]propyl]pyridine-4-carboxamide]	1000 to 10000 nM				1000 to 10000 nM		
Cc1ncoc1COc1ccc2c(c1)CCN(C[C@@H](O)CNC(=O)c1ccnc(NC3CCC3)c1)C2 [Compound 96, (S)-2-(cyclobutylamino)-N-(2-hydroxy-3-(6-((4-methyloxazol-5-yl)methoxy)-3,4-dihydroisoquinolin-2(1H)-yl)propyl)isonicotinamide]	< 1000 nM				< 1000 nM		
O=C(NC[C@H](O)CN1CCc2cc(OCc3cn[nH]c3)ccc2C1)c1ccnc(NC2CCC2)c1 [Compound 163, 2-(cyclobutylamino)-N-[(2S)-2-hydroxy-3-[6-(1H-pyrazol-4-ylmethoxy)-3,4-dihydro-1H-isoquinolin-2-yl]propyl]pyridine-4-carboxamide]	< 1000 nM				< 1000 nM		
O=C(NC[C@H](O)CN1CCc2c(ccc(OCc3cnco3)c2Cl)C1)c1ccnc(NC2CCC2)c1F [Compound 326, (S)—N-(3-(5-chloro-6-(oxazol-5-ylmethoxy)-3N-dihydroisoquinolin-2(1H)-yl)-2-hydroxypropyl)-2-(cyclobutylamino)-3-fluoroisonicotinamide]	≥ 10000 nM				≥ 10000 nM		
CC(=O)N1CC(Nc2cc(C(=O)NC[C@H](O)CN3CCc4cc(OCc5ocnc5C)c(F)cc4C3)cc(N3CCCCC3)n2)C1 [Compound 638]	1000 to 10000 nM	50 to 500 nM	50 to 500 nM	50 to 500 nM			A (a Ki ratio greater than or equal to 10 fold between the Ki in the presence of SAM and the Ki in the presence of MTA)
Cc1ncoc1COc1ccc2c(c1)CCN(C[C@@H](O)CNC(=O)c1cc(NC3CCC3)nc(N3CCCCC3)n1)C2 [Compound 639, (S)-6-(cyclobutylamino)-N-(2-hydroxy-3-(6-((4-methyloxazol-5-yl)methoxy)-3,4-dihydroisoquinolin-2(1H)-yl)propyl)-2-(piperidin-1-yl)pyrimidine-4-carboxamide]	< 1000 nM	50 to 500 nM	500 to 5000 nM	50 to 500 nM			A (a Ki ratio greater than or equal to 10 fold between the Ki in the presence of SAM and the Ki in the presence of MTA)
CCCC(=O)N1CC(Nc2cc(C(=O)NC[C@H](O)CN3CCc4cc(OCc5ocnc5C)c(F)cc4C3)ccn2)C1 [Compound 643, 2-[(1-butanoylazetidin-3-yl)amino]-N-[(2S)-3-[7-fluoro-6-[(4-methyloxazol-5-yl)methoxy]-3,4-dihydro-1H-isoquinolin-2-yl]-2-hydroxy-propyl]pyridine-4-carboxamide]		50 to 500 nM	500 to 5000 nM	50 to 500 nM			A (a Ki ratio greater than or equal to 10 fold between the Ki in the presence of SAM and the Ki in the presence of MTA)
CC(=O)N1CC(Nc2cc(C(=O)NCC(O)CN3CCc4nc(OCc5ocnc5C)ccc4C3)nc(N3CCCCC3)n2)C1 (stereo not shown) [Compound 650]		50 to 500 nM	500 to 5000 nM	50 to 500 nM			A (a Ki ratio greater than or equal to 10 fold between the Ki in the presence of SAM and the Ki in the presence of MTA)
CC(=O)N1CC(Nc2cc(C(=O)NCC(O)CN3CCc4c(C)c(OCc5ocnc5C)cc(F)c4C3)nc(N3CCCCC3)n2)C1 (stereo not shown) [Compound 651]		50 to 500 nM	500 to 5000 nM	50 to 500 nM			A (a Ki ratio greater than or equal to 10 fold between the Ki in the presence of SAM and the Ki in the presence of MTA)
CC(=O)N1CCC(Nc2cc(C(=O)NC[C@@H](O)CN3CCc4c(C)c(OCc5ocnc5C)cc(F)c4C3)cc(N3CCCCC3)n2)CC1 [Compound 652]		50 to 500 nM	500 to 5000 nM	50 to 500 nM			A (a Ki ratio greater than or equal to 10 fold between the Ki in the presence of SAM and the Ki in the presence of MTA)
CC(=O)N1CCC(Nc2cc(C(=O)NC[C@H](O)CN3CCc4c(C)c(OCc5ocnc5C)cc(F)c4C3)cc(N3CCCCC3)n2)CC1 [Compound 653]		500 to 5000 nM	≥ 5000 nM	500 to 5000 nM			A (a Ki ratio greater than or equal to 10 fold between the Ki in the presence of SAM and the Ki in the presence of MTA)
